The target of the first assay is T1, CCK receptor sites (Mus musculus, UniProt P56481).
T1 construct: from tissue; host or cells: cerebral cortex membranes of male CFLP mice
T1 sequence (P56481 1-453): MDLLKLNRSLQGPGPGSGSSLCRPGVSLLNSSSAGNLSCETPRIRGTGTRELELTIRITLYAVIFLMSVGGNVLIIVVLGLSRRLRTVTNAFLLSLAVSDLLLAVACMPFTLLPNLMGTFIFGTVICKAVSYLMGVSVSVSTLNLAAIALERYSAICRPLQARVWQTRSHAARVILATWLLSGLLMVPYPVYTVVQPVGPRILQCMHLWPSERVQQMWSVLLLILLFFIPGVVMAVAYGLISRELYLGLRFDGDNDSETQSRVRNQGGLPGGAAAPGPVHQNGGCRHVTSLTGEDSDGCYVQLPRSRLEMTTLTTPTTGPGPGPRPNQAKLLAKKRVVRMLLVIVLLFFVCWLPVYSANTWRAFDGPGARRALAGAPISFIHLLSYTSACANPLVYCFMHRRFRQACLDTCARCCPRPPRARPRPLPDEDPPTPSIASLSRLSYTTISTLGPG
Kind of assay: CCK receptor binding, displacement of tritiated pentagastrin from mouse cerebral cortex membranes. Also noted: key: IA = Inactive in respect to this binding assay. The conditions noted are these: 2 nM tritiated pentagastrin, mouse cerebral cortical membranes; Ki from IC50 by Cheng-Prusoff. As to the method: The biological activity of compounds of the present invention was evaluated employing an initial screening test which rapidly and accurately measured the binding of the tested compound to known CCK receptor sites. […] (See Hays, et al, Neuropeptides 1:53-62, 1980; and Satuer, et al, Science 208:1155-1156, 1980.)
In this screening test the cerebral cortices taken from male CFLP mice weighing between 30 to 40 g were dissected on ice, weighed, and homogenized in 10 volumes of 50 mM Tris-HCl buffer (pH 7.4 at 0° to 4° C.). The resulting suspension was centrifuged, the supernate was discarded, and the pellet was washed by resuspension in Tris-HCl buffer followed by recentrifugation. The final pellet was resuspended in 20 volumes of […] Hepes buffer (pH 7.2 at 23° C.) containing 130 mM NaCl, […] KCl, […] MgCl2, […] EDTA, 5 mg/mL bovine albumin, and bacitracin (0.25 mg/mL).
In saturation studies, cerebral cortical membranes were incubated at 23° C. for 120 minutes in a final volume of 500 μL of Hepes incubation buffer (pH 7.2) together with 0.2-20 nM tritiated-pentagastrin (Amersham International, England).
In the displacement experiments, membranes were incubated with a single concentration (2 nM) of ligand, together with increasing concentrations of competitive test compound. In each case, the nonspecific binding was defined as that persisting in the presence of the unlabeled octapeptide CCK26-33 (10^-6 M).
Following incubation, radioactivity bound to membranes was separated from that free in solution by rapid filtration through Whatman GF/B filters and washed three times with 4 mL of ice cold Tris-HCl buffer. Filters from samples incubated with tritiated pentagastrin were placed in polyethylene vials with 4 mL of scintillation cocktail, and the radioactivity was estimated by liquid scintillation spectrometry (efficiency 47% to 52%).
The specific binding to CCK receptor sites was defined as the total bound tritiated pentagastrin minus the amount of tritiated pentagastrin bound in the presence of 10^-6 octapeptide, CCK26-33.
Saturation curves for specific tritiated pentagastrin binding to mouse cortical membranes were analyzed by the methods of Scatchard (Ann. New York Acad. Sci. 51:660-672, 1949; Hill, J. Physiol. 40:IV-VIII, 1910) to provide estimates for the maximum number of binding sites (βmax)and the equilibrium dissociation constant (Ka).
In displacement experiments, inhibition curves were analyzed by either logit-log plots or the iterative curve fitting computer program ALLFIT (DeLean, Munson, and Redbard, 1978) to provide estimates of the IC50 and nH (apparent Hill coefficient) values). IC50 values were defined as the concentration of test compound required to produce 50% inhibition of specific binding).
The inhibition constant (Ki) of the test compound was then calculated according to the Cheng-Prusoff equation: [formula] where [L] is the concentration of radiolabel and Ka is the equilibrium dissociation constant.
The Ki values for several representative compounds of the present invention are present in Table II.
Take `CC(Cc1c[nH]c2ccncc12)(NC(=O)OC1C2CC3CC(C2)CC1C3)C(=O)NC(CO)C(O)c1ccccc1` (stereo not drawn) [drawing 67]: the Ki (usually a dissociation constant, usually derived from enzyme kinetics or from competition with a known ligand) is “IA”. Regarding `CC(Cc1n[nH]c2ccccc12)(NC(=O)OC1C2CC3CC(C2)CC1C3)C(=O)NCC(c1ccccc1)N1C(=O)CCC1=O` (stereo not drawn) [drawing 53/drawing 54 (Diast I)], the inhibition constant (Ki) result is “IA”. Still for that read-out and setting: the same measure for `CC(Cc1ccc[n+]([O-])c1)(NC(=O)OC1C2CC3CC(C2)CC1C3)C(=O)NC(CO)Cc1ccccc1` (stereo not drawn) [drawing 60 (Diast I)]: “IA”; for `CC(Cc1cccnc1)(NC(=O)OC1C2CC3CC(C2)CC1C3)C(=O)NCCc1ccccc1` (stereo not drawn): “IA”. The same measure, in the same setting: the same measure for `CC(Cc1cccc[n+]1[O-])(NC(=O)OC1C2CC3CC(C2)CC1C3)C(=O)NCCc1ccccc1` (stereo not drawn) [drawing 22 (H H H H H)]: “IA”.

Staying with this assay, now noted: 2 nM tritiated pentagastrin, mouse cerebral cortical membranes; Ki from IC50 by Cheng-Prusoff; read-out: Ki.
As to `CC(Cc1cc2c3ccccc3n(S(C)(=O)=O)c2cn1)(NC(=O)OC1C2CC3CC(C2)CC1C3)C(=O)NC(CO)Cc1ccccc1` (stereo not drawn), the Ki is 844 nM. For the compound `CC(Cc1c(Br)oc2ccccc12)(NC(=O)OC1C2CC3CC(C2)CC1C3)C(=O)NCCc1ccccc1` (stereo not drawn) [drawing 28 (H H H H H)], the Ki was found to be 1280 nM. Take `CC(Cc1n[nH]c2ccccc12)(NC(=O)OC1C2CC3CC(C2)CC1C3)C(=O)NCC(c1ccccc1)N1C(=O)CCC1=O` (stereo not drawn) [drawing 53/drawing 54 (Diast II)]: the Ki is 220 nM. As to `CC(Cc1ccc2ccccc2n1)(NC(=O)OC1C2CC3CC(C2)CC1C3)C(=O)NCC(NC(=O)CCC(=O)O)c1ccccc1` (stereo not drawn), the Ki came out at 290 nM. On the same count and under the same terms, the figure for `CC(CC1CCc2ccccc2N1)(NC(=O)OC1C2CC3CC(C2)CC1C3)C(=O)NCC(NC(=O)CCC(=O)O)c1ccccc1` (stereo not drawn) is 690 nM.

With `CC(Cc1cc2c(cn1)[nH]c1ccccc12)(NC(=O)OC1C2CC3CC(C2)CC1C3)C(=O)NCCc1ccccc1` (stereo not drawn), the Ki came out at 2170 nM. Regarding `CC(Cc1ccnc2ccccc12)(NC(=O)OC1C2CC3CC(C2)CC1C3)C(=O)N[C@H](CO)Cc1ccccc1` (stereo partly drawn) [drawing 40 (H H CH2 OH H H)], the Ki was determined as 129 nM.

With `CC(Cc1ccc2ccccc2n1)(NC(=O)OC1C2CC3CC(C2)CC1C3)C(=O)N[C@H](CO)Cc1ccccc1` (stereo partly drawn) [drawing 36 (Diast I)], the Ki was 410 nM. Consider `CC(Cc1ccccn1)(NC(=O)OC1C2CC3CC(C2)CC1C3)C(=O)NCCc1ccccc1` (stereo not drawn), for which the Ki was determined as 3000 nM. Regarding `CC(Cc1cc2c3ccccc3n(S(C)(=O)=O)c2cn1)(NC(=O)OC1C2CC3CC(C2)CC1C3)C(=O)NCCc1ccccc1` (stereo not drawn), the Ki worked out at 1990 nM. Consider `CC(Cc1c[nH]c2ccncc12)(NC(=O)OC1C2CC3CC(C2)CC1C3)C(=O)NC(CO)C(O)c1ccccc1` (stereo not drawn) [drawing 69], for which the Ki worked out at 2300 nM. Same read-out and setting: the figure for `CC(Cc1cccnc1)(NC(=O)OC1C2CC3CC(C2)CC1C3)C(=O)N[C@H](CO)Cc1ccccc1` (stereo partly drawn) [drawing 32 (Diast I)] is 700 nM; for `CC(Cc1csc2ccccc12)(NC(=O)OC1C2CC3CC(C2)CC1C3)C(=O)NCCc1ccccc1` (stereo not drawn) [drawing 47 (H H H H H)] it is 760 nM.

For `CC(CC1C=Cc2ccccc2N1)(NC(=O)OC1C2CC3CC(C2)CC1C3)C(=O)NCC(NC(=O)CCC(=O)O)c1ccccc1` (stereo not drawn), the Ki stood at 3000 nM. Regarding `CC(C)COC(=O)OC[C@H](Cc1ccccc1)NC(=O)C(C)(Cc1cccnc1)NC(=O)OC1C2CC3CC(C2)CC1C3` (stereo partly drawn) [drawing 32 (H H CH2 OCO2 i-Bu H H)], the Ki amounted to 3000 nM. For the compound `CC(Cc1coc2ccccc12)(NC(=O)OC1C2CC3CC(C2)CC1C3)C(=O)NCCc1ccccc1` (stereo not drawn) [drawing 27 (H H H H H)], the Ki came out at 990 nM. On the same count and under the same terms, the same measure for `CC(Cc1n[nH]c2ccccc12)(NC(=O)OC1C2CC3CC(C2)CC1C3)C(=O)NCCc1ccccc1` (stereo not drawn) [drawing 38 (H H H H H)]: 100 nM; for `CC(Cc1ccnc2ccccc12)(NC(=O)OC1C2CC3CC(C2)CC1C3)C(=O)NCC(NC(=O)CCC(=O)O)c1ccccc1` (stereo not drawn): 88 nM.

For `CN1c2ccccc2C(c2ccccc2)=NCC1CC(C)(NC(=O)OC1C2CC3CC(C2)CC1C3)C(=O)NCC(NC(=O)CCC(=O)O)c1ccccc1` (stereo not drawn), the Ki is 290 nM.

Source of the values: US5331006A, “Amino acid analogs as CCK antagonists” (Warner-Lambert Company, priority 1991, dated 1994).
